From PubChem BioAssay (NCI)
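96-well plates; 48 h exposure; 5 concentrations. Endpoints by linear interpolation between flanking doses. Not reached: highest tested concentration assigned. At the TGI there is no net growth.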

Columns and labels:
Experiment in all cases: DTP human tumour cell line panel, 48 h
MDA-MB-435 = test system: MDA-MB-435
T-47D breast = test system: T-47D breast
HCT-15 colon = test system: HCT-15 colon
SK-MEL-28 melanoma = test system: SK-MEL-28 melanoma
UACC-62 melanoma = test system: UACC-62 melanoma
HL-60(TB) leukemia = test system: HL-60(TB) leukemia
CCRF-CEM leukemia = test system: CCRF-CEM leukemia
LOX IMVI melanoma = test system: LOX IMVI melanoma
UO-31 renal = test system: UO-31 renal
NCI-H460 lung = test system: NCI-H460 lung
RPMI-8226 leukemia = test system: RPMI-8226 leukemia
OVCAR-4 ovarian = test system: OVCAR-4 ovarian
MOLT-4 leukemia = test system: MOLT-4 leukemia
RXF 393 renal = test system: RXF 393 renal
SR leukemia = test system: SR leukemia
PC-3 prostate = test system: PC-3 prostate
NCI/ADR-RES ovarian = test system: NCI/ADR-RES ovarian
SK-MEL-5 melanoma = test system: SK-MEL-5 melanoma
MALME-3M melanoma = test system: MALME-3M melanoma
NCI-H23 lung = test system: NCI-H23 lung

Measured: TGI

COC(=O)C1(Cc2cccc(C)c2)Cc2c(C)cccc2C1=O (stereo not given)
> 100 µM: T-47D breast | HCT-15 colon | SK-MEL-28 melanoma | UACC-62 melanoma | HL-60(TB) leukemia | CCRF-CEM leukemia | LOX IMVI melanoma | UO-31 renal | NCI-H460 lung | RPMI-8226 leukemia | OVCAR-4 ovarian | MOLT-4 leukemia | RXF 393 renal | SR leukemia | PC-3 prostate | SK-MEL-5 melanoma | MALME-3M melanoma | NCI-H23 lung
41.3 µM: MDA-MB-435
72.2 µM: NCI/ADR-RES ovarian

COc1cc(C2S/C(=C/c3ccccc3)C(=O)N2c2cc(Cl)c(Cl)cc2Cl)cc(OC)c1OC (stereo not given)
> 77.2 µM: HL-60(TB) leukemia
> 100 µM: MDA-MB-435 | T-47D breast | HCT-15 colon | SK-MEL-28 melanoma | UACC-62 melanoma | UO-31 renal | NCI-H460 lung | OVCAR-4 ovarian | RXF 393 renal | PC-3 prostate | NCI/ADR-RES ovarian | SK-MEL-5 melanoma | NCI-H23 lung
> 69.4 µM: SR leukemia
> 72.4 µM: MOLT-4 leukemia
> 88.9 µM: CCRF-CEM leukemia
> 84.4 µM: MALME-3M melanoma
> 79.3 µM: LOX IMVI melanoma
> 62.4 µM: RPMI-8226 leukemia

NC(=NCCN1CCCCCCC1)NO
> 100 µM: MDA-MB-435 | T-47D breast | HCT-15 colon | SK-MEL-28 melanoma | UACC-62 melanoma | HL-60(TB) leukemia | CCRF-CEM leukemia | LOX IMVI melanoma | UO-31 renal | NCI-H460 lung | RPMI-8226 leukemia | OVCAR-4 ovarian | MOLT-4 leukemia | RXF 393 renal | SR leukemia | PC-3 prostate | NCI/ADR-RES ovarian | SK-MEL-5 melanoma | MALME-3M melanoma | NCI-H23 lung

CCOC(=O)c1c(-c2ccccc2)nc2c(OC)nccn12
> 100 µM: MDA-MB-435 | T-47D breast | HCT-15 colon | SK-MEL-28 melanoma | UACC-62 melanoma | HL-60(TB) leukemia | CCRF-CEM leukemia | LOX IMVI melanoma | UO-31 renal | NCI-H460 lung | RPMI-8226 leukemia | OVCAR-4 ovarian | MOLT-4 leukemia | SR leukemia | PC-3 prostate | NCI/ADR-RES ovarian | SK-MEL-5 melanoma | MALME-3M melanoma | NCI-H23 lung
80.9 µM: RXF 393 renal
